Reference: US3960845A, “Process for preparing 7β-acylamino-7α-alkoxycephalosporins or 6β-acylamino-6α-alkoxypenicillins” (Sankyo Company Limited, priority 1974, dated 1976)
Values after ≈ are worked out from the molar mass of the structure shown. Like-named read-outs stand apart in the source and are kept apart here.

Assays:
Format in all cases: cell-based
[1] = tested on: Staphylococcus aureus 209p; test: Minimal inhibitory concentration; details: for MIC: read-out: Minimal inhibitory concentration
Text: (§1) Minimal inhibitory concentrations of various microorganisms mcg/ml
1 A Staphylococcus aureus 209p

[2] = tested on: Staphylococcus aureus (CP and PC resistant); test: Minimal inhibitory concentration; details: I B: Staphylococcus aureus (CP and PC resistant)
Text: as §1
1 B Staphylococcus aureus

Proteus vulgaris = test: Minimal inhibitory concentration; details: for MIC: read-out: Minimal inhibitory concentration
Text: as §1

[3] = tested on: E. coli 609 (CER resistant); test: Minimal inhibitory concentration; details: for MIC: Escherichia coli, read-out: Minimal inhibitory concentration
Text: as §1
II B E. coli 609 (CER resistant)

[4] = tested on: Shigella flexneri Komagome; test: Minimal inhibitory concentration; details: III: Shigella flexneri Komagome; for MIC: read-out: Minimal inhibitory concentration
Text: as §1
III Shigella flexneri Komagome

Klebsiella neumoniae 806 = test: Minimal inhibitory concentration
Text: as §1
IV A Klebsiella neumoniae 806

[5] = tested on: Klebsiella neumoniae 846 (CER resistant); test: Minimal inhibitory concentration; details: IV B: Klebsiella neumoniae 846 (CER resistant)
Text: as §1
IV B Klebsiella neumoniae 846 (CER resistant)

[6] = tested on: Salmonella enteritidis Gaertner; test: Minimal inhibitory concentration; details: for MIC: Salmonella enterica, read-out: Minimal inhibitory concentration
Text: as §1
VI Salmonella enteritidis Gaertner

[7] = tested on: broad pathogenic microorganisms; test: antimicrobial activity; details: result in words
E. coli NIHJ = test: Minimal inhibitory concentration; details: II A: E. coli NIHJ; for MIC: Escherichia coli
Text: as §1

[8] = II B: E. coli 609 (CER resistant)
[9] = I A: Staphylococcus aureus 209p
[10] = IV A: Klebsiella neumoniae 806, read-out: Minimal inhibitory concentration
[11] = VI: Salmonella enteritidis Gaertner

SMILES | MIC [2] | MIC [3, 8] | MIC [4] | MIC [5] | antimicrobial activity against broad pathogenic microorganisms [7] | MIC [1, 9] | MIC (E. coli NIHJ) | MIC (Proteus vulgaris; V: Proteus vulgaris) | MIC (Klebsiella neumoniae 806; [10]) | MIC [6, 11] | also measured
CO[C@@]1(NC(=O)CSCC#N)C(=O)N2C(C(=O)O)=C(CSc3nnnn3C)CS[C@@H]21 [7β-cyanomethylthioacetamido-7α-methoxy-3-(1-methyl-1H-tetrazol-5-yl)thiomethyl-3-cephem-4-carboxylic acid] | 0.8 µg/mL (≈ 1.7 µM) | 0.8 µg/mL (≈ 1.7 µM) | 0.8 µg/mL (≈ 1.7 µM) | > 200 µg/mL | excellent antimicrobial activity | – | – | – | – | – | MIC ([1]; Staphylococcus aureus, 209P): 0.2 µg/mL (≈ 0.424 µM); MIC (Proteus vulgaris; Proteus vulgaris): 1.5 µg/mL (≈ 3.18 µM); MIC (Klebsiella neumoniae 806; Klebsiella, 806, read-out: Minimal inhibitory concentration): 0.8 µg/mL (≈ 1.7 µM); MIC ([6]; ENTERITIDIS): 0.2 µg/mL (≈ 0.424 µM)
CO[C@@]1(NC(=O)CSCC#N)C(=O)N2C(C(=O)O)=C(COC(C)=O)CS[C@@H]21 [7β-cyanomethylthioacetamido-7α-methoxy-3-acetoxymethyl-3-cephem-4-carboxylic acid] | 0.8 µg/mL (≈ 1.93 µM) | 1.5 µg/mL (≈ 3.61 µM) | 3.1 µg/mL (≈ 7.46 µM) | > 400 µg/mL | excellent antimicrobial activity | 0.2 µg/mL (≈ 0.481 µM) | 1.5 µg/mL (≈ 3.61 µM) | 6.2 µg/mL (≈ 14.9 µM) | 1.5 µg/mL (≈ 3.61 µM) | 0.8 µg/mL (≈ 1.93 µM) | –
CO[C@@]1(NC(=O)CSc2nncs2)C(=O)N2C(C(=O)O)=C(COC(N)=O)CS[C@@H]21 [7β-(1,3,4-thiadiazol-2-yl)thioacetamido-7α-methoxy-3-carbamoyloxymethyl-3-cephem-4-carboxylic acid] | 1.5 µg/mL (≈ 3.25 µM) | 3.1 µg/mL (≈ 6.72 µM) | 3.1 µg/mL (≈ 6.72 µM) | > 400 µg/mL | excellent antimicrobial activity | 0.4 µg/mL (≈ 0.867 µM) | 3.1 µg/mL (≈ 6.72 µM) | 6.2 µg/mL (≈ 13.4 µM) | 3.1 µg/mL (≈ 6.72 µM) | 1.5 µg/mL (≈ 3.25 µM) | –
CO[C@@]1(NC(=O)CSc2nnc[nH]2)C(=O)N2C(C(=O)O)=C(COC(N)=O)CS[C@@H]21 [7β-(1,2,4-triazol-4H-3-yl)thioacetamido-7α-methoxy-3-carbamoyloxymethyl-3-cephem-4-carboxylic acid] | 6.2 µg/mL (≈ 13.9 µM) | – | 12.5 µg/mL (≈ 28.1 µM) | > 400 µg/mL | excellent antimicrobial activity | 1.5 µg/mL (≈ 3.37 µM) | 6.2 µg/mL (≈ 13.9 µM) | 25 µg/mL (≈ 56.2 µM) | 6.2 µg/mL (≈ 13.9 µM) | 6.2 µg/mL (≈ 13.9 µM) | MIC [3]: 12.5 µg/mL (≈ 28.1 µM)
CO[C@@]1(NC(=O)CSc2ncc[nH]2)C(=O)N2C(C(=O)O)=C(COC(N)=O)CS[C@@H]21 [7β-(imidazol-2-yl)thioacetamido-7α-methoxy-3-carbamoyloxymethyl-3-cephem-4-carboxylic acid] | 0.8 µg/mL (≈ 1.8 µM) | 3.1 µg/mL (≈ 6.99 µM) | 3.1 µg/mL (≈ 6.99 µM) | > 200 µg/mL | excellent antimicrobial activity | ≤ 0.1 µg/mL | 1.5 µg/mL (≈ 3.38 µM) | 6.2 µg/mL (≈ 14 µM) | 3.1 µg/mL (≈ 6.99 µM) | 1.5 µg/mL (≈ 3.38 µM) | –
CO[C@@]1(NC(=O)CSCN=[N+]=[N-])C(=O)N2C(C(=O)O)=C(COC(C)=O)CS[C@@H]21 [7β-azidomethylthioacetamido-7α-methoxy-3-acetoxymethyl-3-cephem-4-carboxylic acid] | 0.8 µg/mL (≈ 1.85 µM) | 6.2 µg/mL (≈ 14.4 µM) | 6.2 µg/mL (≈ 14.4 µM) | > 200 µg/mL | excellent antimicrobial activity | 0.4 µg/mL (≈ 0.927 µM) | 6.2 µg/mL (≈ 14.4 µM) | 3.1 µg/mL (≈ 7.19 µM) | 6.2 µg/mL (≈ 14.4 µM) | 1.5 µg/mL (≈ 3.48 µM) | –
CO[C@@]1(NC(=O)COc2ccon2)C(=O)N2C(C(=O)O)=C(CSc3nnnn3C)CS[C@@H]21 [7β-(3-isoxazolyloxy)acetamido-7α-methoxy-3-(1-methyl-1H-tetrazol-5-yl)thiomethyl-3-cephem-4-carboxylic acid] | – | – | – | – | excellent antimicrobial activity | – | – | – | – | – | Minimal inhibitory concentration [1, 9]: 0.2 µg/mL (≈ 0.414 µM); Minimal inhibitory concentration [2]: 0.8 µg/mL (≈ 1.65 µM); Minimal inhibitory concentration (E. coli NIHJ): 3.1 µg/mL (≈ 6.41 µM); Minimal inhibitory concentration (Proteus vulgaris; V: Proteus vulgaris): 6.2 µg/mL (≈ 12.8 µM); Minimal inhibitory concentration [3, 8]: 3.1 µg/mL (≈ 6.41 µM); Minimal inhibitory concentration [4]: 3.1 µg/mL (≈ 6.41 µM); Minimal inhibitory concentration (Klebsiella neumoniae 806; IV A: Klebsiella neumoniae 806): 3.1 µg/mL (≈ 6.41 µM); Minimal inhibitory concentration [5]: > 400 µg/mL; Minimal inhibitory concentration [6, 11]: 1.5 µg/mL (≈ 3.1 µM)
CO[C@@]1(NC(=O)CSc2ncc[nH]2)C(=O)N2C(C(=O)O)=C(CSc3nnnn3C)CS[C@@H]21 [7β-(imidazol-2-yl)thioacetamido-7α-methoxy-3-(1-methyl-1H-tetrazol-5-yl)thiomethyl-3-cephem-4-carboxylic acid] | 3.1 µg/mL (≈ 6.22 µM) | 6.2 µg/mL (≈ 12.4 µM) | 6.2 µg/mL (≈ 12.4 µM) | > 200 µg/mL | excellent antimicrobial activity | 0.8 µg/mL (≈ 1.6 µM) | 6.2 µg/mL (≈ 12.4 µM) | 12.5 µg/mL (≈ 25.1 µM) | 6.2 µg/mL (≈ 12.4 µM) | 3.1 µg/mL (≈ 6.22 µM) | –
CO[C@@]1(NC(=O)CSCC#N)C(=O)N2C(C(=O)O)=C(COC(N)=O)CS[C@@H]21 [7β-cyanomethylthioacetamido-7α-methoxy-3-carbamoyloxymethyl-3-cephem-4-carboxylic acid] | 1.5 µg/mL (≈ 3.6 µM) | 0.8 µg/mL (≈ 1.92 µM) | 3.1 µg/mL (≈ 7.44 µM) | > 400 µg/mL | excellent antimicrobial activity | 0.8 µg/mL (≈ 1.92 µM) | 1.5 µg/mL (≈ 3.6 µM) | 6.2 µg/mL (≈ 14.9 µM) | 0.4 µg/mL (≈ 0.961 µM) | 0.4 µg/mL (≈ 0.961 µM) | –
CO[C@@]1(NC(=O)CSc2ncc[nH]2)C(=O)N2C(C(=O)O)=C(COC(C)=O)CS[C@@H]21 [7β-(imidazol-2-yl)thioacetamido-7α-methoxy-3-acetoxymethyl-3-cephem-4-carboxylic acid] | 6.2 µg/mL (≈ 14 µM) | 25 µg/mL (≈ 56.5 µM) | 25 µg/mL (≈ 56.5 µM) | > 400 µg/mL | excellent antimicrobial activity | 1.5 µg/mL (≈ 3.39 µM) | 12.5 µg/mL (≈ 28.3 µM) | 25 µg/mL (≈ 56.5 µM) | 12.5 µg/mL (≈ 28.3 µM) | 6.2 µg/mL (≈ 14 µM) | –
CO[C@@]1(NC(=O)CSc2nncs2)C(=O)N2C(C(=O)O)=C(COC(C)=O)CS[C@@H]21 [7β-(1,3,4-thiadiazol-2-yl)thioacetamido-7α-methoxy-3-acetoxymethyl-3-cephem-4-carboxylic acid] | 1.5 µg/mL (≈ 3.26 µM) | 6.2 µg/mL (≈ 13.5 µM) | 6.2 µg/mL (≈ 13.5 µM) | > 400 µg/mL | excellent antimicrobial activity | 0.8 µg/mL (≈ 1.74 µM) | 3.1 µg/mL (≈ 6.73 µM) | 6.2 µg/mL (≈ 13.5 µM) | 3.1 µg/mL (≈ 6.73 µM) | 3.4 µg/mL (≈ 7.38 µM) | –
CO[C@@]1(NC(=O)CSc2ccon2)C(=O)N2C(C(=O)O)=C(COC(C)=O)CS[C@@H]21 [7β-(3-isoxazolyl)thioacetamido-7α-methoxy-3-acetoxymethyl-3-cephem-4-carboxylic acid] | 0.8 µg/mL (≈ 1.8 µM) | 6.2 µg/mL (≈ 14 µM) | 6.2 µg/mL (≈ 14 µM) | > 400 µg/mL | excellent antimicrobial activity | 0.2 µg/mL (≈ 0.451 µM) | 3.1 µg/mL (≈ 6.99 µM) | 3.1 µg/mL (≈ 6.99 µM) | 3.1 µg/mL (≈ 6.99 µM) | 1.5 µg/mL (≈ 3.38 µM) | –
CO[C@@]1(NC(=O)CSc2nnc(C)s2)C(=O)N2C(C(=O)O)=C(COC(N)=O)CS[C@@H]21 [7β-(5-methyl-1,3,4-thiadiazol-2-yl)thioacetamido-7α-methoxy-3-carbamoyloxymethyl-3-cephem-4-carboxylic acid] | 3.1 µg/mL (≈ 6.52 µM) | 6.2 µg/mL (≈ 13 µM) | 12.5 µg/mL (≈ 26.3 µM) | > 200 µg/mL | excellent antimicrobial activity | 0.8 µg/mL (≈ 1.68 µM) | 6.2 µg/mL (≈ 13 µM) | 6.2 µg/mL (≈ 13 µM) | 6.2 µg/mL (≈ 13 µM) | 3.1 µg/mL (≈ 6.52 µM) | –
